Laboratory results as given in ChEMBL document CHEMBL1149887, “Enantiospecific synthesis and cytotoxicity of 7-(4-methoxyphenyl)-6-phenyl-2,3,8,8a-tetrahydroindolizin-5(1H)-one enantiomers” (Bioorg Med Chem, 2008).
pIC50: −log10 of the molar value.

The molecules below were run on HCT-116 (assay: Cytotoxicity against human HCT116 cells).
Format: functional, cell-based

Q: How did the pIC50 turn out when `COc1cc2c3c(c4cc(OC)c(OC)cc4c2cc1OC)CN1CCCC1C3` (racemic) [(+/-)-TYLOPHORINE] was run?
A: 6.17

Q: With `COc1ccc(C2=C(c3ccccc3)C(=O)N3CCC[C@@H]3C2)cc1` as the molecule, how does the pIC50 read?
A: 6.70

Q: How did the pIC50 turn out when `COc1ccc(C2=C(c3ccccc3)C(=O)N3CCC[C@H]3C2)cc1` was run?
A: 6.41
